Structures can show the parent of a compound that is named as a salt.
target: T1, human NK1 receptor (Homo sapiens, UniProt P25103); assay: NK1 receptor binding assay, displacement of [3H]substance P; settings: [3H]substance P (0.6 nM) displacement; CHO cells infected with the human NK1 receptor (Semliki virus expression system); 60 min at room temperature; read-out: affinity to the NK-1 receptor, given as pKi (converted)
T1 construct: expressed in transfected cells; host or cells: CHO cells infected with Semliki virus expression system; membrane suspension
T1 sequence (P25103 whole entry): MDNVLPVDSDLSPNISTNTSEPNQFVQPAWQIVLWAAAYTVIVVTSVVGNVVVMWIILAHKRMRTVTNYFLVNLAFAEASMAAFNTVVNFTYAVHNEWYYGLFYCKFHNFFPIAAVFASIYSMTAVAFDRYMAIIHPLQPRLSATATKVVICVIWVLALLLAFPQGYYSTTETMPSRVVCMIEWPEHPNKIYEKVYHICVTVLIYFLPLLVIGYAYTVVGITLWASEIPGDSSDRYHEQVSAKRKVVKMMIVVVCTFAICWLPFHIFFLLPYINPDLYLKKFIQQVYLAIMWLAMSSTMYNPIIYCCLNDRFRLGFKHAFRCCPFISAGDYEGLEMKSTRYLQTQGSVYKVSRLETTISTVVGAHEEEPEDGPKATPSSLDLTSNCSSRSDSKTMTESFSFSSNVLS
Experimental: The affinity of test compounds for the NK, receptor was evaluated at human NK, receptors in CHO cells infected with the human NK1 receptor (using the Semliki virus expression system) and radiolabelled with [^3H]substance P (final concentration 0.6 nM). Binding assays were performed in HEPES buffer (50 mM, pH 7.4) containing BSA (0.04 %) leupeptin (8 μg/ml), MnCl2 (3mM) and phosphoramidon (2 μM). Binding assays consisted of 250 μl of membrane suspension (1.25×10^5 cells/assay tube), […] of buffer of displacing agent and 125 μl of [^3H]substance P. Displacement curves were determined with at least seven concentrations of the compound. The assay tubes were incubated for 60 min at room temperature after which time the tube contents were rapidly filtered under vacuum through GF/C filters presoaked for 60 min with PEI (0.3%) with 2×2 ml washed of HEPES buffer (50 mM, pH 7.4). The radioactivity retained on the filters was measured by scintillation counting. All assays were performed in triplicate in at least 2 separate experiments.

**Q.** With CN1CCN(c2ncc(-c3ccccc3Cl)c(C(=O)N(C)Cc3cc(C(F)(F)F)cc(C(F)(F)F)c3)n2)CC1 [Example 13, 5-(2-Chloro-phenyl)-2-(4-methyl-piperazin-1-yl)-pyrimidine-4-carboxylic acid (3,5-bis-trifluoromethyl-benzyl)-methyl-amide] as the compound, how does the Ki read?
**A.** 6.17 nM

**Q.** For Cc1cc(F)ccc1-c1cnc(NCCN(C)C)nc1C(=O)N(C)Cc1cc(C(F)(F)F)cc(C(F)(F)F)c1 [Example 54, 2-(2-Dimethylamino-ethylamino)-5-(4-fluoro-2-methyl-phenyl)-pyrimidine-4-carboxylic acid (3,5-bis-trifluoromethyl-benzyl)-methyl-amide], which Ki is on record?
**A.** 1.45 nM

**Q.** For Cc1ccccc1-c1cnc(OCCN(C)C)nc1C(=O)N(C)Cc1cc(C(F)(F)F)cc(C(F)(F)F)c1 [Example 21, 2-(2-Dimethylamino-ethoxy)-5-o-tolyl-pyrimidine-4-carboxylic acid (3,5-bis-trifluoromethyl-benzyl)-methyl-amide], which Ki is on record?
**A.** 2.19 nM

**Q.** Which Ki does the source give for Cc1ccccc1-c1cnc(OCCN(C)C)nc1N(C)C(=O)C(C)(C)c1cc(C(F)(F)F)cc(C(F)(F)F)c1 [Example 79, 2-(3,5-Bis-trifluoromethyl-phenyl)-N-[2-(2-dimethylamino-ethoxy)-5-o-tolyl-pyrimidin-4-yl]-N-methyl-isobutyramide] here?
**A.** 0.661 nM

**Q.** Which Ki does the source give for CN1CCN(c2ncc(-c3cccc4ccccc34)c(C(=O)N(C)Cc3cc(C(F)(F)F)cc(C(F)(F)F)c3)n2)CC1 [Example 25, 2-(4-Methyl-piperazin-1-yl)-5-naphthalen-1-yl-pyrimidine-4-carboxylic acid (3,5-bis-trifluoromethyl-benzyl)-methyl-amide] here?
**A.** 3.72 nM

system: not given; assay: not given; settings: not given

**Q.** Which melting point does the source give for Cc1ccccc1-c1cnc(OCCN(C)C)nc1C(=O)N(C)Cc1cc(C(F)(F)F)cc(C(F)(F)F)c1 (as salt: hydrochloride) [Example 21, 2-(2-Dimethylamino-ethoxy)-5-o-tolyl-pyrimidine-4-carboxylic acid (3,5-bis-trifluoromethyl-benzyl)-methyl-amide] here?
**A.** 147 to 149 °C
